In patent EP2607478A1, “Phenanthroline treated MSC” (Universiteit Twente, priority 2011, dated 2013):

How the values were obtained:
MSCs = experiment: Protein expression analysis (Luminex assay) of treated MSCs; format: cell-based, Human; conditions: primary MSCs, 2 days; for VEGF secretion / secretion of IL-8: 150 µM DFO or 200 µM PHE, measured in cell lysates; for secretion of IL-8: basic 15-25 pg/mL
Description: MSCs were seeded at 5000 cells/cm^2 in T25 flasks. […] After 2 days, cells were lysed with 250 µL RIPA buffer with addition of protease/phosphatase inhibitors (Roche). Total protein concentrations were determined using a BCA kit (Pierce) and 10 µg of total protein was used to determine concentrations of VEGF, IL-8, basic fibroblast growth factor (bFGF), […] stimulating factor (G-CSF) and epidermal growth factor (EGF) using a Luminex assay (Invitrogen) according to the manufacturer's protocol. Briefly, cells and standards were incubated with fluorescent beads, followed by incubation with a biotinylated detection antibody. After incubation with streptavidin-R-Phycoerythrin and washing, both the fluorescence of the coupled beads and the R-phycoerythrin were measured using a Luminex® FlexMap™.

male C57/BL6 mice = experiment: In vivo murine matrigel plug assay; conditions: matrigel plug with DFO (150 uM) or PHE (200 uM), subcutaneous, 7 days, versus PBS
Description: In vivo angiogenesis analysis was performed using a matrigel plug assay in male C57/BL6 mice (age 8 weeks)(Charles River). Growth factor reduced matrigel (0.5 ml) (BD Biosciences) was injected into the subcutaneous space on the dorsal side of mice on both the left and right flank. […] Mice were sacrificed 7 days post-implantation. Matrigel plugs were excised and processed for histological analysis. Paraffin sections (5 um) were stained with Hematoxylin, Phloxine and Saffron (HPS) or anti-CD31 (PECAM, Abcam, Cambridge, UK). Vascular ingrowth was scored in a double blinded fashion and quantified using the following method: every individual section was scored for the degree of ingrowth, using five different categories of ingrowth (1=minimal ingrowth at the border of the plug, 5=capillary ingrowth throughout the total plug), and the mean ingrowth score per group was defined (6 sections per plug, 7 mice per group). The endothelial nature of the infiltrating cells was confirmed by the CD31 staining,
Data was analyzed using one-way ANOVA followed by Tukey's multiple comparison's test (P<0,05). For the analysis of the ingrowth in the matrigel plug statistical analysis was performed using ANOVA and unpaired T test.

[1] = 200 µM PHE, compared to DFO and hypoxia

SMILES | VEGF secretion (MSCs) [pg/mL] | secretion of IL-8 (MSCs) [pg/mL] | capillary ingrowth (male C57/BL6 mice) | secretion of basic fibroblast growth factor (bFGF) (MSCs; [1]) | secretion of growth-colony stimulating factor (G-CSF) (MSCs; [1])
CC(=O)N(O)CCCCCNC(=O)CCC(=O)N(O)CCCCCNC(=O)CCC(=O)N(O)CCCCCN [DFO, reference compound] | 140 | 15 to 25 | significantly increased capillary ingrowth |  | 
c1cnc2c(c1)ccc1cccnc12 [PHE, 1, 10-phenanthroline] | 65 | 300 to 500 | significantly increased capillary ingrowth | reduced | reduced
